Results reported in paper PMC11277489, “Novel Piperazine Derivatives of Vindoline as Anticancer Agents” (International Journal of Molecular Sciences, 2024).
Like-named read-outs stand apart in the source and are kept apart here.

Columns and labels:
UACC-257 = assay: NCI60 one-dose screen (10 μM), Melanoma; format: cell-based; conditions: Homo sapiens
SN12C = assay: NCI60 one-dose screen (10 μM), Renal Cancer; format: cell-based; conditions: Homo sapiens, read-out: Growth percent rate
IGROV1 = assay: NCI60 one-dose screen (10 μM), Ovarian Cancer; format: cell-based; conditions: Homo sapiens
LOX IMVI = assay: NCI60 one-dose screen (10 μM), Melanoma; format: cell-based, human; conditions: Homo sapiens, LOX IMVI, read-out: Growth percent rate
A549/ATCC = assay: NCI60 one-dose screen (10 μM), Non-small Cell Lung Cancer; format: cell-based; conditions: Homo sapiens
OVCAR-3 = assay: NCI60 one-dose screen (10 μM), Ovarian Cancer; format: cell-based; conditions: Homo sapiens
SF-539 = assay: NCI60 one-dose screen (10 μM), CNS Cancer; format: cell-based, human; conditions: Homo sapiens
COLO 205 = assay: NCI60 one-dose screen (10 μM), Colon Cancer; format: cell-based, human; conditions: Homo sapiens
HCT-15 = assay: NCI60 one-dose screen (10 μM), Colon Cancer; format: cell-based; conditions: Homo sapiens
SK-MEL-28 = assay: NCI60 one-dose screen (10 μM), Melanoma; format: cell-based; conditions: Homo sapiens
CAKI-1 = assay: NCI60 one-dose screen (10 μM), Renal Cancer; format: cell-based; conditions: Homo sapiens
SF-295 = assay: NCI60 one-dose screen (10 μM), CNS Cancer; format: cell-based; conditions: Homo sapiens
RXF 393 = assay: NCI60 one-dose screen (10 μM), Renal Cancer; format: cell-based, human; conditions: Homo sapiens
786–0 = assay: NCI60 one-dose screen (10 μM), Renal Cancer; format: cell-based; conditions: Homo sapiens
TK-10 = assay: NCI60 one-dose screen (10 μM), Renal Cancer; format: cell-based; conditions: Homo sapiens
OVCAR-8 = assay: NCI60 one-dose screen (10 μM), Ovarian Cancer; format: cell-based; conditions: Homo sapiens
HOP-62 = assay: NCI60 one-dose screen (10 μM), Non-small Cell Lung Cancer; format: cell-based; conditions: Homo sapiens
SNB-19 = assay: NCI60 one-dose screen (10 μM), CNS Cancer; format: cell-based; conditions: Homo sapiens
MALME-3M = assay: NCI60 one-dose screen (10 μM), Melanoma; format: cell-based; conditions: Homo sapiens, read-out: Growth percent rate
KM12 = assay: NCI60 one-dose screen (10 μM), Colon Cancer; format: cell-based, human; conditions: Homo sapiens
M14 = assay: NCI60 one-dose screen (10 μM), Melanoma; format: cell-based; conditions: Homo sapiens
MCF7 = assay: NCI60 one-dose screen (10 μM), Breast Cancer; format: cell-based; conditions: Homo sapiens
EKVX = assay: NCI60 one-dose screen (10 μM), Non-small Cell Lung Cancer; format: cell-based; conditions: Homo sapiens, read-out: Growth percent rate
CCRF-CEM = assay: NCI60 one-dose screen (10 μM), Leukemia; format: cell-based; conditions: Homo sapiens, read-out: Growth percent rate
HL-60(TB) = assay: NCI60 one-dose screen (10 μM), Leukemia; format: cell-based; conditions: Homo sapiens
ACHN = assay: NCI60 one-dose screen (10 μM), Renal Cancer; format: cell-based; conditions: Homo sapiens, read-out: Growth percent rate
MDA-MB-435 = assay: NCI60 one-dose screen (10 μM), Melanoma; format: cell-based; conditions: Homo sapiens
K-562 = assay: NCI60 one-dose screen (10 μM), Leukemia; format: cell-based; conditions: Homo sapiens
HCC-2998 = assay: NCI60 one-dose screen (10 μM), Colon Cancer; format: cell-based; conditions: Homo sapiens
SW-620 = assay: NCI60 one-dose screen (10 μM), Colon Cancer; format: cell-based; conditions: Homo sapiens
HCT-116 = assay: NCI60 one-dose screen (10 μM), Colon Cancer; format: cell-based; conditions: Homo sapiens
RPMI-8226 = assay: NCI60 one-dose screen (10 μM), Leukemia; format: cell-based; conditions: Homo sapiens
OVCAR-4 = assay: NCI60 one-dose screen (10 μM), Ovarian Cancer; format: cell-based; conditions: Homo sapiens
SK-MEL-2 = assay: NCI60 one-dose screen (10 μM), Melanoma; format: cell-based; conditions: Homo sapiens
SF-268 = assay: NCI60 one-dose screen (10 μM), CNS Cancer; format: cell-based; conditions: Homo sapiens
HS 578T = assay: NCI60 one-dose screen (10 μM), Breast Cancer; format: cell-based; conditions: Homo sapiens, read-out: Growth percent rate
NCI-H23 = assay: NCI60 one-dose screen (10 μM), Non-small Cell Lung Cancer; format: cell-based; conditions: Homo sapiens
HT29 = assay: NCI60 one-dose screen (10 μM), Colon Cancer; format: cell-based; conditions: Homo sapiens
SK-MEL-5 = assay: NCI60 one-dose screen (10 μM), Melanoma; format: cell-based, human; conditions: Homo sapiens
NCI-H522 = assay: NCI60 one-dose screen (10 μM), Non-small Cell Lung Cancer; format: cell-based; conditions: Homo sapiens
NCI-H322M = assay: as above; format: cell-based; conditions: Homo sapiens, read-out: Growth percent rate
MOLT-4 = assay: NCI60 one-dose screen (10 μM), Leukemia; format: cell-based, human; conditions: Homo sapiens
[1] = 10 μM, Non-small Cell Lung Cancer

`CCC12C=CCN3CC[C@@]4(c5ccc(OC)cc5N(C)[C@H]4[C@@](O)(C(=O)OC)[C@@H]1OC(C)=O)[C@@H]32` (stereo partly drawn) [Compound 1, vindoline] was tested, and the activity at 10 µM (UACC-257; UACC-257, read-out: Growth percent rate) was 95.8%, the activity at 10 µM (SN12C) was 100% and the activity at 10 µM (IGROV1; IGROV-1, read-out: Growth percent rate) was 145%. It also gave an activity at 10 µM (LOX IMVI) of 95.3%, an activity at 10 µM (A549/ATCC; A549, read-out: Growth percent rate) of 101% and an activity at 10 µM (OVCAR-3; OVCAR-3, read-out: Growth percent rate) of 127%. It also gave an activity at 10 µM (SF-539; SF-539, read-out: Growth percent rate) of 116%, an activity at 10 µM (COLO 205; COLO 205, read-out: Growth percent rate) of 111% and an activity at 10 µM (HCT-15; HCT-15, read-out: Growth percent rate) of 103%. The activity at 10 µM (SK-MEL-28; SK-MEL-28, read-out: Growth percent rate) was 134%, the activity at 10 µM (CAKI-1; CAKI-1, read-out: Growth percent rate) was 105% and the activity at 10 µM (SF-295; SF-295, read-out: Growth percent rate) was 103%. For the same compound, the activity at 10 µM (RXF 393; RXF 393, read-out: Growth percent rate) was 98%, the activity at 10 µM (786–0; 786-0, read-out: Growth percent rate) was 97.5% and the activity at 10 µM (TK-10; TK-10, read-out: Growth percent rate) was 97.5%. For the same compound, the activity at 10 µM (OVCAR-8; OVCAR-8, read-out: Growth percent rate) was 103%, the activity at 10 µM (HOP-62; HOP-62, read-out: Growth percent rate) was 99% and the activity at 10 µM (SNB-19; SNB-19, read-out: Growth percent rate) was 102%. For the same compound, the activity at 10 µM (MALME-3M; Malme-3M) was 147%, the activity at 10 µM (KM12; KM12, read-out: Growth percent rate) was 108% and the activity at 10 µM (M14; M14, read-out: Growth percent rate) was 105%. It also gave an activity at 10 µM (MCF7; MCF7, read-out: Growth percent rate) of 89.9%, an activity at 10 µM (EKVX) of 92% and an activity at 10 µM (CCRF-CEM) of 102%. For the same compound, the activity at 10 µM (HL-60(TB); HL-60, read-out: Growth percent rate) was 96.7%, the activity at 10 µM (ACHN) was 105% and the activity at 10 µM (MDA-MB-435; MDA-MB-435, read-out: Growth percent rate) was 104%. For the same compound, the activity at 10 µM (K-562; K562, read-out: Growth percent rate) was 89.3%, the activity at 10 µM (HCC-2998; HCC 2998, read-out: Growth percent rate) was 101% and the activity at 10 µM (SW-620; SW-620, read-out: Growth percent rate) was 121%. For the same compound, the activity at 10 µM (HCT-116; HCT-116, read-out: Growth percent rate) was 116%, the activity at 10 µM (RPMI-8226; RPMI-8226, read-out: Growth percent rate) was 105% and the activity at 10 µM (OVCAR-4; OVCAR-4, read-out: Growth percent rate) was 136%. The activity at 10 µM (SK-MEL-2; SK-MEL-2, read-out: Growth percent rate) was 106%, the activity at 10 µM (SF-268; SF-268, read-out: Growth percent rate) was 122% and the activity at 10 µM (HS 578T; Hs-578T) was 98%. For the same compound, the activity at 10 µM (NCI-H23; NCI-H23, read-out: Growth percent rate) was 95.3%, the activity at 10 µM (HT29; HT-29, read-out: Growth percent rate) was 108% and the activity at 10 µM (SK-MEL-5; SK-MEL-5, read-out: Growth percent rate) was 89.2%. It also gave an activity at 10 µM (NCI-H522; NCI-H522, read-out: Growth percent rate) of 99.7%, an activity at 10 µM (NCI-H322M) of 109% and an activity at 10 µM (MOLT-4; MOLT-4, read-out: Growth percent rate) of 92.7%.

`CCC12C=CCN3CCC4(c5ccc(OC)cc5N(C)C4C(O)(C(=O)OC)C1OC(=O)CCCN1CCN(C)CC1)C32` (stereo not drawn) [Compound 3] was tested, and the activity at 10 µM (UACC-257; 10 μM, UACC-257, Melanoma, read-out: Growth percent rate) was 90.1%, the activity at 10 µM (SN12C; 10 μM, Renal Cancer) was 89.1% and the activity at 10 µM (IGROV1; IGROV-1, 10 μM, IGROV1, Ovarian Cancer, read-out: Growth percent rate) was 102%. The activity at 10 µM (LOX IMVI; 10 μM, Melanoma) was 84%, the activity at 10 µM (A549/ATCC; 10 μM, A549/ATCC, Non-small Cell Lung Cancer, read-out: Growth percent rate) was 98.2% and the activity at 10 µM (OVCAR-3; 10 μM, OVCAR-3, Ovarian Cancer, read-out: Growth percent rate) was 78.1%. For the same compound, the activity at 10 µM (SF-539; 10 μM, SF-539, CNS Cancer, read-out: Growth percent rate) was 88.1%, the activity at 10 µM (COLO 205; 10 μM, COLO 205, Colon Cancer, read-out: Growth percent rate) was 90% and the activity at 10 µM (HCT-15; 10 μM, HCT-15, Colon Cancer, read-out: Growth percent rate) was 91.3%. For the same compound, the activity at 10 µM (SK-MEL-28; 10 μM, SK-MEL-28, Melanoma, read-out: Growth percent rate) was 85%, the activity at 10 µM (CAKI-1; 10 μM, CAKI-1, Renal Cancer, read-out: Growth percent rate) was 54.5% and the activity at 10 µM (SF-295; 10 μM, SF-295, CNS Cancer, read-out: Growth percent rate) was 96.2%. It also gave an activity at 10 µM (RXF 393; 10 μM, RXF 393, Renal Cancer, read-out: Growth percent rate) of 73%, an activity at 10 µM (786–0; 10 μM, 786-0, Renal Cancer, read-out: Growth percent rate) of 106% and an activity at 10 µM (TK-10; 10 μM, TK-10, Renal Cancer, read-out: Growth percent rate) of 99%. The activity at 10 µM (OVCAR-8; 10 μM, OVCAR-8, Ovarian Cancer, read-out: Growth percent rate) was 92.9%, the activity at 10 µM (HOP-62; 10 μM, HOP-62, Non-small Cell Lung Cancer, read-out: Growth percent rate) was 79.9% and the activity at 10 µM (SNB-19; 10 μM, SNB-19, CNS Cancer, read-out: Growth percent rate) was 90.6%. The activity at 10 µM (MALME-3M; 10 μM, MALME-3M, Melanoma) was 77.2%, the activity at 10 µM (KM12; 10 μM, KM12, Colon Cancer, read-out: Growth percent rate) was 85.3% and the activity at 10 µM (M14; 10 μM, M14, Melanoma, read-out: Growth percent rate) was 103%. The activity at 10 µM (MCF7; 10 μM, MCF7, Breast Cancer, read-out: Growth percent rate) was 78%, the activity at 10 µM (EKVX; [1]) was 96.5% and the activity at 10 µM (CCRF-CEM; 10 μM, Leukemia) was 108%. For the same compound, the activity at 10 µM (HL-60(TB); 10 μM, HL-60(TB), Leukemia, read-out: Growth percent rate) was 91%, the activity at 10 µM (ACHN; 10 μM, Renal Cancer) was 103% and the activity at 10 µM (MDA-MB-435; 10 μM, MDA-MB-435, Melanoma, read-out: Growth percent rate) was 28.9%. For the same compound, the activity at 10 µM (K-562; K562, 10 μM, K-562, Leukemia, read-out: Growth percent rate) was 66.9%, the activity at 10 µM (HCC-2998; 10 μM, HCC-2998, Colon Cancer, read-out: Growth percent rate) was 92.4% and the activity at 10 µM (SW-620; 10 μM, SW-620, Colon Cancer, read-out: Growth percent rate) was 87%. The activity at 10 µM (HCT-116; 10 μM, HCT-116, Colon Cancer, read-out: Growth percent rate) was 112%, the activity at 10 µM (RPMI-8226; 10 μM, RPMI-8226, Leukemia, read-out: Growth percent rate) was 112% and the activity at 10 µM (OVCAR-4; 10 μM, OVCAR-4, Ovarian Cancer, read-out: Growth percent rate) was 101%. It also gave an activity at 10 µM (SK-MEL-2; 10 μM, SK-MEL-2, Melanoma, read-out: Growth percent rate) of 84.7%, an activity at 10 µM (SF-268; 10 μM, SF-268, CNS Cancer, read-out: Growth percent rate) of 90.8% and an activity at 10 µM (HS 578T; 10 μM, HS 578T, Breast Cancer) of 78.6%. The activity at 10 µM (NCI-H23; 10 μM, NCI-H23, Non-small Cell Lung Cancer, read-out: Growth percent rate) was 90%, the activity at 10 µM (HT29; HT-29, 10 μM, HT29, Colon Cancer, read-out: Growth percent rate) was 98.8% and the activity at 10 µM (SK-MEL-5; 10 μM, SK-MEL-5, Melanoma, read-out: Growth percent rate) was 74.5%. The activity at 10 µM (NCI-H522; 10 μM, NCI-H522, Non-small Cell Lung Cancer, read-out: Growth percent rate) was 45.9%, the activity at 10 µM (NCI-H322M; [1]) was 96.9% and the activity at 10 µM (MOLT-4; 10 μM, MOLT-4, Leukemia, read-out: Growth percent rate) was 102%.
